Values quoted from earlier work as cited in patent WO2013169007A1, “Sustained-release complex preparations for treating diabetes with improved drug compliance and method for preparing same” (priority 2012, dated 2013).

drug half-life (continuous administration): about 9 hours | absorption by the gastrointestinal tract (in vivo, po): almost completely absorbed
Compound: CCC1=C(C)CN(C(=O)NCCc2ccc(S(=O)(=O)NC(=O)N[C@H]3CC[C@H](C)CC3)cc2)C1=O [glimepiride]
